# Measured values published in patent US12239711B2, “Cereblon ligands and bifunctional compounds comprising the same” (Arvinas Operations, Inc., priority 2014, dated 2025).
# Tested on: androgen receptor (AR)
# Assay: AR ELISA assay in LNCaP and/or VCaP cells
# Type: cell-based
# Conditions: 5 hours
# Experimental: 4. AR ELISA Assay Protocol for Table 6
# Compounds were evaluated in this assay in LNCaP and/or VCaP cells utilizing similar protocols. The protocols used with VCaP cells are described below. The androgen receptor ELISA assay was performed using PathScani AR Sandwich ELISA (Cell Signaling Catalog #12850) according to the following assay steps:
# VCaP cells were seeded at 40,000 cells/well at a volume of 100 μL/well in VCaP assay medium [Phenol red free RPMI (Gibco Cat #11835-030); 5% Charcoal Stripped (Dextran treated) FBS (Omega Scientific, Cat #FB-04); 1% penstrep (Life Technologies, Gibco Cat #: 10378-016)] in Corning 3904 plates. The cells were incubated for a minimum of 3 days. Cells were dosed with PROTACs diluted in 0.01% DMSO and the drug treatment was allowed for 5 hours.
# AR ELISA (Cell Signaling) was performed as follows: 1× Cell Signaling Cell lysis buffer was made (Catalogue #9803; comes with the kit). Media from the treated wells is aspirated, and 100 μL 1× cell lysis buffer/well is added. The cells were placed on a shaker for 10 minutes at 4° C. Twenty microliters of lysate was transferred to 100 μl of Diluent in ELISA plate (0.15 μg/ml-0.075 μg/ml). The lysate-diluent mixture was shaken for 30 minutes at 37° C. Allow mouse AR antibody, anti-mouse antibody, TMB, and STOP solution to come to room temperature. The 1× ELISA buffer included in kit was made and loaded in the reservoir. Media from the plates was discarded, the ELISA plate tapped hard on paper towel, and washed 4×200 μl ELISA wash buffer using a plate washer.
# One-hundred (100) μL/well of mouse AR detection Ab was added; the plates were covered and shaken at 37° C. for 1 hour; media was discarded from the plates, the plates were tapped on a paper towel, washed 4× with 200 μL ELISA wash buffer with a plate washer.
# One-hundred (100) μL/well of anti-mouse—HRP conjugated Ab (comes with the kit) was added; the plates were covered and shaken at 37° C. for 30 minutes; the TMB reagent was allowed to come to room temperature; the media was discard from the plate, the plates were tapped on paper towl, washed 4× with 200 μL of ELISA wash buffer; the plates were tapped the plates on paper towl. One-hundred (100) μL of TMB was added and the plates shaken for 2 minutes—while watching for color development. One-hundred (100) μL Stop solution was added when light blue color developed. Plates were shaken and read at 450 nm.
# Progression of prostate cancer in patients treated with anti-androgen therapy usually involves one of several mechanisms of enhanced Androgen Receptor (AR) signaling, including increased intratumoral androgen synthesis, increased AR expression and AR mutations. PROTACs (PROteolysis TArgeting Chimera), which use bi-functional molecules that simultaneously bind a target of choice and an E3 ligase, cause ubiquitination via induced proximity and degradation of the targeted, pathological protein. As opposed to traditional target inhibition, which is a competitive process, degradation is a progressive process. As such, it is less susceptible to increases in endogenous ligand, target expression, or mutations in the target. Thus, this technology appears to be ideal for addressing the mechanisms of AR resistance in patients with prostate cancer. Data was analyzed and plotted using GraphPad Prism software.
DC50,SMILES,AR Dmax
< 1 nM,"COc1cc(N2CCN(CC3CCN(c4ccc(C(=O)N[C@H]5CC[C@H](Oc6ccc(C#N)c(Cl)c6)CC5)nn4)CC3)CC2)cc2c1C(=O)N(C1CCC(=O)NC1=O)C2=O (mixture of isomers) [compound 32, rac-N-((1r,4r)-4-(3-chloro-4-cyanophenoxy)cyclohexyl)-6-(4-((4-(2-(2,6-dioxopiperidin-3-yl)-7-methoxy-1,3-dioxoisoindolin-5-yl)piperazin-1-yl)methyl)piperidin-1-yl)pyridazine-3-carboxamide]",
< 1 nM,"COc1cc(N2CCN(CC3CCN(c4ncc(C(=O)N[C@H]5C(C)(C)[C@H](Oc6ccc(C#N)c(Cl)c6)C5(C)C)cn4)CC3)CC2)cc2c1C(=O)N(C1CCC(=O)NC1=O)C2=O (mixture of isomers) [compound 33, rac-N-((1r,3r)-3-(3-chloro-4-cyanophenoxy)-2,2,4,4-tetramethylcyclobutyl)-2-(4-((4-(2-(2,6-dioxopiperidin-3-yl)-7-methoxy-1,3-dioxoisoindolin-5-yl)piperazin-1-yl)methyl)piperidin-1-yl)pyrimidine-5-carboxamide]",
,"CC1(C)[C@H](NC(=O)c2ccc(N3CCC(CN4CCN(c5ccc6c(c5)C5(CC5)N(C5CCC(=O)NC5=O)C6=O)CC4)CC3)cc2)C(C)(C)[C@H]1Oc1ccc(C#N)c(Cl)c1 (mixture of isomers) [compound 34, rac-N-((1r,3r)-3-(3-chloro-4-cyanophenoxy)-2,2,4,4-tetramethylcyclobutyl)-4-(4-((4-(2′-(2,6-dioxopiperidin-3-yl)-3′-oxospiro[cyclopropane-1,1′-isoindolin]-6′-yl)piperazin-1-yl)methyl)piperidin-1-yl)benzamide]",C (C < 50)
,"CC(C)N(CC1CCN(c2cnc(C(=O)N[C@H]3CC[C@H](Oc4ccc(C#N)c(Cl)c4)CC3)cn2)CC1)[C@H]1C[C@H](Oc2ccc3c(c2)C(=O)N(C2CCC(=O)NC2=O)C32CC2)C1 (mixture of isomers) [compound 35, rac-N-((1r,4r)-4-(3-chloro-4-cyanophenoxy)cyclohexyl)-5-(4-((((1r,3r)-3-((2′-(2,6-dioxopiperidin-3-yl)-3′-oxospiro[cyclopropane-1,1′-isoindolin]-5′-yl)oxy)cyclobutyl)(isopropyl)amino)methyl)piperidin-1-yl)pyrazine-2-carboxamide]",C (C < 50)
,"CC(C)N(CC1CCN(c2cnc(C(=O)N[C@H]3CC[C@H](Oc4ccc(C#N)c(Cl)c4)CC3)cn2)CC1)[C@H]1C[C@H](Oc2ccc3c(c2)C2(CC2)N(C2CCC(=O)NC2=O)C3=O)C1 (mixture of isomers) [compound 36, rac-N-((1r,4r)-4-(3-chloro-4-cyanophenoxy)cyclohexyl)-5-(4-((((1r,3r)-3-((2′-(2,6-dioxopiperidin-3-yl)-3′-oxospiro[cyclopropane-1,1′-isoindolin]-6′-yl)oxy)cyclobutyl)(isopropyl)amino)methyl)piperidin-1-yl)pyrazine-2-carboxamide]",C (C < 50)
,"CC(C)N(CC1CCN(c2cnc(C(=O)N[C@H]3C(C)(C)[C@H](Oc4ccc(C#N)c(Cl)c4)C3(C)C)cn2)CC1)[C@H]1C[C@H](Oc2ccc3c(c2)C(=O)N(C2CCC(=O)NC2=O)C32CC2)C1 (mixture of isomers) [compound 37, rac-N-((1r,3r)-3-(3-chloro-4-cyanophenoxy)-2,2,4,4-tetramethylcyclobutyl)-5-(4-((((1r,3r)-3-((2′-(2,6-dioxopiperidin-3-yl)-3′-oxospiro[cyclopropane-1,1′-isoindolin]-5′-yl)oxy)cyclobutyl)(isopropyl)amino)methyl)piperidin-1-yl)pyrazine-2-carboxamide]",C (C < 50)
,"CC(C)N(CC1CCN(c2cnc(C(=O)N[C@H]3C(C)(C)[C@H](Oc4ccc(C#N)c(Cl)c4)C3(C)C)cn2)CC1)[C@H]1C[C@H](Oc2ccc3c(c2)C2(CC2)N(C2CCC(=O)NC2=O)C3=O)C1 (mixture of isomers) [compound 38, rac-N-((1r,3r)-3-(3-chloro-4-cyanophenoxy)-2,2,4,4-tetramethylcyclobutyl)-5-(4-((((1r,3r)-3-((2′-(2,6-dioxopiperidin-3-yl)-3′-oxospiro[cyclopropane-1,1′-isoindolin]-6′-yl)oxy)cyclobutyl)(isopropyl)amino)methyl)piperidin-1-yl)pyrazine-2-carboxamide]",C (C < 50)
< 1 nM,"CC1(C)[C@H](NC(=O)c2ccc(N3CCN(CCCCCOc4ccc5c(c4)CCN(C4CCC(=O)NC4=O)C5=O)CC3)nc2)C(C)(C)[C@H]1Oc1ccc(C#N)c(Cl)c1 (mixture of isomers) [compound 46, N-((1r,3r)-3-(3-chloro-4-cyanophenoxy)-2,2,4,4-tetramethylcyclobutyl)-6-(4-(5-(2-(2,6-dioxopiperidin-3-yl)-1-oxo-1,2,3,4-tetrahydroisoquinolin-6-yloxy)pentyl)piperazin-1-yl)nicotinamide]",A (A >= 75)
1 to 10 nM,"CC1(C)[C@H](NC(=O)c2ccc(N3CCN(CCCCCOc4ccc5c(c4)CC(=O)N(C4CCC(=O)NC4=O)C5=O)CC3)nc2)C(C)(C)[C@H]1Oc1ccc(C#N)c(Cl)c1 (mixture of isomers) [compound 47, N-((1r,3r)-3-(3-chloro-4-cyanophenoxy)-2,2,4,4-tetramethylcyclobutyl)-6-(4-(5-((2-(2,6-dioxopiperidin-3-yl)-1,3-dioxo-1,2,3,4-tetrahydroisoquinolin-6-yl)oxy)pentyl)piperazin-1-yl)nicotinamide]",B (50 <= B < 75)
< 1 nM,"CC1(C)[C@H](NC(=O)c2ccc(N3CCN(CCCCCOc4ccn5c(=O)n(C6CCC(=O)NC6=O)nc5c4)CC3)nc2)C(C)(C)[C@H]1Oc1ccc(C#N)c(Cl)c1 (mixture of isomers) [compound 48, N-((1r,3r)-3-(3-chloro-4-cyanophenoxy)-2,2,4,4-tetramethylcyclobutyl)-6-(4-(5-((2-(2,6-dioxopiperidin-3-yl)-3-oxo-2,3-dihydro-[1,2,4]triazolo[4,3-a]pyridin-7-yl)oxy)pentyl)piperazin-1-yl)nicotinamide]",B (50 <= B < 75)
< 1 nM,"CC1(C)[C@H](NC(=O)c2ccc(N3CCN(CCCCCOc4ccc5nn(C6CCC(=O)NC6=O)c(=O)n5c4)CC3)nc2)C(C)(C)[C@H]1Oc1ccc(C#N)c(Cl)c1 (mixture of isomers) [compound 49, N-((1r,3r)-3-(3-chloro-4-cyanophenoxy)-2,2,4,4-tetramethylcyclobutyl)-6-(4-(5-((2-(2,6-dioxopiperidin-3-yl)-3-oxo-2,3-dihydro-[1,2,4]triazolo[4,3-a]pyridin-6-yl)oxy)pentyl)piperazin-1-yl)nicotinamide]",A (A >= 75)
< 1 nM,"CC1(C)[C@H](NC(=O)c2ccc(N3CCC(CN4CCN(c5ccn6c(=O)n(C7CCC(=O)NC7=O)nc6c5)CC4)CC3)cc2)C(C)(C)[C@H]1Oc1ccc(C#N)c(Cl)c1 (mixture of isomers) [compound 50, N-((1r,3r)-3-(3-chloro-4-cyanophenoxy)-2,2,4,4-tetramethylcyclobutyl)-4-(4-((4-(2-(2,6-dioxopiperidin-3-yl)-3-oxo-2,3-dihydro-[1,2,4]triazolo[4,3-a]pyridin-7-yl)piperazin-1-yl)methyl)piperidin-1-yl)benzamide]",A (A >= 75)
< 1 nM,"CC1(C)[C@H](NC(=O)c2ccc(N3CCC(CCN4CCN(c5cc6c(cn5)C(=O)N(C5CCC(=O)NC5=O)C6=O)CC4)CC3)cc2)C(C)(C)[C@H]1Oc1ccc(C#N)c(Cl)c1 (mixture of isomers) [compound 51, rac-N-((1r,3r)-3-(3-chloro-4-cyanophenoxy)-2,2,4,4-tetramethylcyclobutyl)-4-(4-(2-(4-(2-(2,6-dioxopiperidin-3-yl)-1,3-dioxo-2,3-dihydro-1H-pyrrolo[3,4-c]pyridin-6-yl)piperazin-1-yl)ethyl)piperidin-1-yl)benzamide]",A (A >= 75)
< 1 nM,"CC1(C)[C@H](NC(=O)c2ccc(N3CCC(CCN4CCN(c5ncc6c(n5)C(=O)N(C5CCC(=O)NC5=O)C6=O)CC4)CC3)cc2)C(C)(C)[C@H]1Oc1ccc(C#N)c(Cl)c1 (mixture of isomers) [compound 52, (rac)-N-((1r,3r)-3-(3-chloro-4-cyanophenoxy)-2,2,4,4-tetramethylcyclobutyl)-4-(4-(2-(4-(6-(2,6-dioxopiperidin-3-yl)-5,7-dioxo-6,7-dihydro-5H-pyrrolo[3,4-d]pyrimidin-2-yl)piperazin-1-yl)ethyl)piperidin-1-yl)benzamide]",B (50 <= B < 75)
